In US6777229B1, “Plasmids from Corynebacterium glutamicum and use thereof” (Degussa AG, priority 1999, dated 2004):

Legend:
Assay in all cases: Minimum inhibition concentration, NCCLS Approved Standard M7-A4 dilution test
Assay type in all cases: cell-based
[1] = system: Corynebacterium glutamicum LP-6; details: strain LP-6 (resistant test strain)
Description: (§1) In order to identify antibiotic resistance genes on new plasmids, the strain to be investigated, in the present case Corynebacterium glutamicum LP-6, and a sensitive control strain, in the present case Corynebacterium glutamicum ATCC13032, are initially tested for resistance or sensitivity to various antibiotics and concentrations of antibiotics. […] Using the method of “Approved Standard M7-A4”, it is possible to determine inhibition concentrations and thus to ascertain the resistance of the investigated strain of bacteria.
(§2) In order to identify antibiotic resistance regions on the novel plasmids pTET3 or pCRY4, the resistant test strain Corynebacterium glutamicum LP-6 and the sensitive control strain Corynebacterium glutamicum ATCC13032 were initially cultured in the presence and absence of various antibiotics and antibiotic concentrations in accordance with the experimental method of the National Committee of Clinical Laboratory Standards (National Committee of Clinical Laboratory Standards, Methods for dilution antimicrobial susceptibility tests for bacteria that grow aerobically; Approved Standard, M7-A4 (1997)). The antibiotics required for this test, inter alia the antibiotics tetracycline, spectinomycin, streptomycin and sulfamethoxazole, were obtained from Sigma-Aldrich Chemie GmbH (Deisenhofen, Germany) and used in the concentrations stated in “Approved Standard M7-A4”. The nutrient medium required for this test, “MÖLLER-HINTON bouillon” was obtained from Merck KGaA (Darmstadt, Germany) and used in accordance with the manufacturer's instructions. Using the method of “Approved Standard M7-A4”, it is possible to determine inhibition concentrations (Table 1) and to identify the resistance of the bacterial strain Corynebacterium glutamicum LP-6 to the antibiotics tetracycline, spectinomycin, streptomycin and sulfamethoxazole. Plasmid DNA isolated from Corynebacterium glutamicum LP-6 using an alkaline lysis method (“NucleoBond Nucleic Acid Purification Kits and Cartridges User Manual (PT3167-1)”, Clonetech Laboratories GmbH, Heidelberg, Germany, 1997) was then transferred with electrical assistance into Corynebacterium glutamicum ATCC13032. Selection was performed directly for the presence of the identified tetracycline resistance in the primary selection on LB agar containing 5 μg/ml of tetracycline. […] The transformed strain was named Corynebacterium glutamicum ATCC13032 [pTET3].

[2] = system: Corynebacterium glutamicum ATCC13032; details: strain ATCC13032 (sensitive control), MÜLLER-HINTON bouillon
Description: as §1, §2

[3] = system: Corynebacterium glutamicum ATCC13032 [pTET3]; details: strain ATCC13032 [pTET3]
Description: In order to identify antibiotic resistance genes on new plasmids, the strain to be investigated, in the present case Corynebacterium glutamicum LP-6, and a sensitive control strain, in the present case Corynebacterium glutamicum ATCC13032, are initially tested for resistance or sensitivity to various antibiotics and concentrations of antibiotics. The National Committee of Clinical Laboratory Standards (NCCLS) experimental procedure is preferably used for this purpose (“Methods for dilution antimicrobial susceptibility tests for bacteria that grow aerobically”, fourth edition; Approved Standard, M7-A4, NCCLS 17(2), (1997)). Using the method of “Approved Standard M7-A4”, it is possible to determine inhibition concentrations and thus to ascertain the resistance of the investigated strain of bacteria.
The plasmid to be investigated, in the present case pTET3, is then isolated from strain LP-6 as described above and used to transform a suitable control or indicator strain, in the present case strain ATCC13032. Methods for transforming coryneform bacteria are described, for example, in Thierbach et al. ([…] 29, 356-362 (1988)), in Liebl et al. (FEMS Microbiology Letters 65, 299-304 (1989)) or in Dunican et al. (Bio/Technology 7, 1067-1070 (1989)). Selection is performed on conventional, complex nutrient media, such as for example brain-heart bouillon or Luria-Bertani medium, which are supplemented with the appropriate antibiotics. The antibiotic and the concentration thereof for this selection process is determined on the basis of the above-mentioned “Approved Standard, M7-A4”. In this manner, strain ATCC13032[pTET3], is obtained by selection for tetracycline resistance. The resistance/sensitivity of strain ATCC13032[pTET3) and of the control strain ATCC13032 is then investigated using the above-mentioned method, yielding the result that strain ATCC13032[pTET3] is resistant to the antibiotics tetracycline, streptomycin, spectinomycin and sulfamethoxazole.
In order to identify antibiotic resistance regions on the novel plasmids pTET3 or pCRY4, the resistant test strain Corynebacterium glutamicum LP-6 and the sensitive control strain Corynebacterium glutamicum ATCC13032 were initially cultured in the presence and absence of various antibiotics and antibiotic concentrations in accordance with the experimental method of the National Committee of Clinical Laboratory Standards (National Committee of Clinical Laboratory Standards, Methods for dilution antimicrobial susceptibility tests for bacteria that grow aerobically; Approved Standard, M7-A4 (1997)). […]

Structure (SMILES) | Minimum inhibition concentration [1] | Minimum inhibition concentration [2] | Minimum inhibition concentration [3]
CN[C@@H]1[C@H](O)[C@H](NC)[C@H]2O[C@@]3(O)C(=O)C[C@@H](C)O[C@H]3O[C@@H]2[C@H]1O [Spectinomycin] | >2000 μg of antibiotic per ml | ≦50 μg of antibiotic per ml | >2000 μg of antibiotic per ml
[H]/N=C(/N)N[C@H]1[C@H](O)[C@@H](O)[C@H](O[C@@H]2O[C@@H](C)[C@](O)(C=O)[C@H]2O[C@@H]2O[C@@H](CO)[C@H](O)[C@@H](O)[C@@H]2NC)[C@@H](N/C(N)=N\[H])[C@@H]1O [Streptotmycin] | ≦100 μg of antibiotic per ml | ≦0.5 μg of antibiotic per ml | ≦100 μg of antibiotic per ml
Cc1cc(NS(=O)(=O)c2ccc(N)cc2)no1 [Sulfamethoxazole] | ≦300 μg of antibiotic per ml | ≦150 μg of antibiotic per ml | ≦300 μg of antibiotic per ml
CN(C)[C@@H]1C(O)=C(C(N)=O)C(=O)[C@@]2(O)C(O)=C3C(=O)c4c(O)cccc4[C@@](C)(O)[C@H]3C[C@@H]12 [Tetracycline] | ≦12 μg of antibiotic per ml | ≦0.75 μg of antibiotic per ml | ≦12 μg of antibiotic per ml
